From patent US10961202B2, “Bis-benzimidazole compounds and methods of using the same” (THE SCRIPPS RESEARCH INSTITUTE, priority 2017, dated 2021)
pIC50: −log10 of the molar value.

How the values were obtained:
[1] = system: r(CUG)12-MBNL1 complex; experiment: Inhibition of the r(CUG)12-MBNL1 complex measured by TR-FRET; format: biochemical; conditions: 80 nM RNA, 60 nM MBNL1-His6
[2] = system: MBNL1 exon 5 inclusion in DM1 myotubes; experiment: Myotube splicing rescue assay (MBNL1 exon 5 inclusion); format: cell-based, human; conditions: 48-hour incubation

Structure (SMILES) | pIC50 ([1]; Table L) | MBNL1 % splicing rescue at 10 μM [2] [%] | MBNL1 % splicing rescue at 1 μM [2] [%] | pIC50 ([1]; Table M)
CN(C)CCNC(=O)c1ccc2nc(-c3ccc(-c4nc5ccc(C(=O)NCCN(C)C)cc5[nH]4)cc3)[nH]c2c1 [Compound 16, 2,2′-(1,4-phenylene)bis(N-(2-(dimethylamino)ethyl)-1H-benzo[d]imidazole-6-carboxamide)] | 5.21 | −4.3 |  | 
CCN(CC)CCNC(=O)c1ccc2nc(-c3ccc(-c4nc5ccc(C(=O)NCCN(CC)CC)cc5[nH]4)cc3)[nH]c2c1 [Compound 33] | 5.09 | 16.4 |  | 
CC(C)N(CCNC(=O)c1ccc2nc(-c3ccc(-c4nc5ccc(C(=O)NCCN(C(C)C)C(C)C)cc5[nH]4)cc3)[nH]c2c1)C(C)C [Compound 34] | 4.84 |  | 20.8 | 
N=C(N)NCCNC(=O)c1ccc2nc(-c3ccc(-c4nc5ccc(C(=O)NCCNC(=N)N)cc5[nH]4)cc3)[nH]c2c1 [Compound 38] | 5.59 | 0.0 |  | 
O=C(NCCN1CCCCC1)c1ccc2nc(-c3ccc(-c4nc5ccc(C(=O)NCCN6CCCCC6)cc5[nH]4)cc3)[nH]c2c1 [Compound 41, 2,2′-(1,4-phenylene)bis(N-(2-(piperidin-1-yl)ethyl)-1H-benzo[d]imidazole-6-carboxamide)] | 5.18 | 59.1 | 43.7 | 
CN1CCN(CCNC(=O)c2ccc3nc(-c4ccc(-c5nc6ccc(C(=O)NCCN7CCCCC7)cc6[nH]5)cc4)[nH]c3c2)CC1 [Compound 44, N-(2-(4-methylpiperazin-1-yl)ethyl)-2-(4-(6-((2-(piperidin-1-yl)ethyl)carbamoyl)-1H-benzo[d]imidazol-2-yl)phenyl)-1H-benzo[d]imidazole-6-carboxamide] | 4.92 | 16.4 | 6.1 | 
O=C(NCCN1CCNCC1)c1ccc2nc(-c3ccc(-c4nc5ccc(C(=O)NCCN6CCNCC6)cc5[nH]4)cc3)[nH]c2c1 [Compound 47, 2,2′-(1,4-phenylene)bis(N-(2-(piperazin-1-yl)ethyl)-1H-benzo[d]imidazole-6-carboxamide)] | 5.17 | 12.8 |  | 
C[N+](C)(C)CCOC(=O)c1ccc2nc(-c3ccc(-c4nc5ccc(C(=O)OCC[N+](C)(C)C)cc5[nH]4)cc3)[nH]c2c1 [Compound 55, 2,2′-((2,2′-(1,4-phenylene)bis(1H-benzo[d]imidazole-6,6′-carbonyl))bis(oxy))bis(N,N,N-trimethylethanaminium) chloride] | 5.38 | 12.0 |  | 
CN(C)CCSc1ccc2nc(-c3ccc(-c4nc5ccc(SCCN(C)C)cc5[nH]4)cc3)[nH]c2c1 [Compound 59, 2,2′-((2,2′-(1,4-phenylene)bis(1H-benzo[d]imidazole-6,2-diyl))bis(sulfanediyl))bis(N,N-dimethylethanamine)] | 4.97 | −17.6 |  | 
N=C(N)NCCC(=O)Nc1ccc2nc(-c3ccc(-c4nc5ccc(NC(=O)CCNC(=N)N)cc5[nH]4)cc3)[nH]c2c1 [Compound 65] | 5.44 |  | 31.7 | 
c1cc2nc(-c3ccc(-c4nc5ccc(NC6=NCCN6C6=NCCN6)cc5[nH]4)cc3)[nH]c2cc1NC1=NCCN1C1=NCCN1 [Compound 77] | 4.97 | 4.2 |  | 
CN(CC(=O)NCCN1CCN(CCNC(=O)c2ccc3nc(-c4ccc(-c5nc6ccc(C(=O)NCCN7CCCCC7)cc6[nH]5)cc4)[nH]c3c2)CC1)CC(=O)NCCN1CCN(CCNC(=O)c2ccc3nc(-c4ccc(-c5nc6ccc(C(=O)NCCN7CCCCC7)cc6[nH]5)cc4)[nH]c3c2)CC1 [Compound 405] |  | −2.5 |  | 
CN(C)CCNC(=O)c1ccc(-c2nc3ccc(-c4ccc5nc(-c6ccc(C(=O)NCCOCCOCCOCCOCc7cn(CCCNCC(=O)N8CCCC8C(=O)N8CCC[C@H]8C(=O)N(CCCn8cc(COCCOCCOCCOCCNC(=O)c9ccc(-c%10nc%11ccc(-c%12ccc%13nc(-c%14ccc(C(=O)NCCN(C)C)cc%14)[nH]c%13c%12)cc%11[nH]%10)cc9)nn8)CC(N)=O)nn7)cc6)[nH]c5c4)cc3[nH]2)cc1 (some centres unmarked) [Compound 438] |  |  |  | < 3.70
CN(C)CCNC(=O)c1ccc(-c2nc3ccc(-c4ccc5nc(-c6ccc(C(=O)N7CCC(C8CCN(C(=O)c9ccc(-c%10nc%11ccc(-c%12ccc%13nc(-c%14ccc(C(=O)NCCN(C)C)cc%14)[nH]c%13c%12)cc%11[nH]%10)cc9)CC8)CC7)cc6)[nH]c5c4)cc3[nH]2)cc1 [Compound 439] |  |  |  | 4.96
CN(C)CCNC(=O)c1ccc(-c2nc3ccc(-c4ccc5nc(-c6ccc(C(=O)NCC7CCCCN7C(=O)c7ccc(-c8nc9ccc(-c%10ccc%11nc(-c%12ccc(C(=O)NCCN(C)C)cc%12)[nH]c%11c%10)cc9[nH]8)cc7)cc6)[nH]c5c4)cc3[nH]2)cc1 (centres unmarked) [Compound 440] |  |  |  | 5.92
C[C@H](CNC(=O)c1ccc(-c2nc3ccc(-c4ccc5nc(-c6ccc(C(=O)NCCN(C)C)cc6)[nH]c5c4)cc3[nH]2)cc1)NC(=O)c1ccc(-c2nc3ccc(-c4ccc5nc(-c6ccc(C(=O)NCCN(C)C)cc6)[nH]c5c4)cc3[nH]2)cc1 [Compound 441] |  |  |  | 4.18

Structure (SMILES) | pIC50 ([1]; Table L) | MBNL1 % splicing rescue at 10 μM [2] [%] | MBNL1 % splicing rescue at 1 μM [2] [%] | pIC50 ([1]; Table M)
C[C@@H](CNC(=O)c1ccc(-c2nc3ccc(-c4ccc5nc(-c6ccc(C(=O)NCCN(C)C)cc6)[nH]c5c4)cc3[nH]2)cc1)NC(=O)c1ccc(-c2nc3ccc(-c4ccc5nc(-c6ccc(C(=O)NCCN(C)C)cc6)[nH]c5c4)cc3[nH]2)cc1 [Compound 442] |  |  |  | 5.17
CN(C)CCNC(=O)c1ccc(-c2nc3ccc(-c4ccc5nc(-c6ccc(C(=O)Nc7cccc(-c8cn(CCCNCC(=O)N9CCCC9C(=O)N9CCC[C@H]9C(=O)N(CCCn9cc(-c%10cccc(NC(=O)c%11ccc(-c%12nc%13ccc(-c%14ccc%15nc(-c%16ccc(C(=O)NCCN(C)C)cc%16)[nH]c%15c%14)cc%13[nH]%12)cc%11)c%10)nn9)CC(N)=O)nn8)c7)cc6)[nH]c5c4)cc3[nH]2)cc1 (some centres unmarked) [Compound 446] |  |  |  | 5.15
C[C@@H](NC(=O)CN(CCN)C(=O)c1ccc(-c2nc3cc(-c4ccc5[nH]c(-c6ccc(OCCCN(C)C)cc6)nc5c4)ccc3[nH]2)cc1)C(=O)N[C@H](C)C(=O)N[C@H](C)C(=O)N[C@H](C)C(=O)N(CCNC(=O)c1ccc(-c2nc3cc(-c4ccc5[nH]c(-c6ccc(OCCCN(C)C)cc6)nc5c4)ccc3[nH]2)cc1)CC(N)=O [Compound 447] |  |  |  | 4.65
C[C@@H](NC(=O)CNCCNC(=O)c1ccc(-c2nc3cc(-c4ccc5[nH]c(-c6ccc(OCCCN(C)C)cc6)nc5c4)ccc3[nH]2)cc1)C(=O)N[C@H](C)C(=O)N[C@H](C)C(=O)N[C@H](C)C(=O)N(CCNC(=O)c1ccc(-c2nc3cc(-c4ccc5[nH]c(-c6ccc(OCCCN(C)C)cc6)nc5c4)ccc3[nH]2)cc1)CC(N)=O [Compound 448] |  |  |  | 5.46
CN(C)CCNC(=O)c1ccc(-c2nc3ccc(-c4ccc5nc(-c6ccc(C(=O)N(C)CCCN(C)CCCN(C)C(=O)c7ccc(-c8nc9ccc(-c%10ccc%11nc(-c%12ccc(C(=O)NCCN(C)C)cc%12)[nH]c%11c%10)cc9[nH]8)cc7)cc6)[nH]c5c4)cc3[nH]2)cc1 [Compound 449] |  |  |  | 5.60
CN(C)CCCN(CCCNC(=O)c1ccc(-c2nc3ccc(-c4ccc5nc(-c6ccc(C(=O)NCCN(C)C)cc6)[nH]c5c4)cc3[nH]2)cc1)C(=O)c1ccc(-c2nc3ccc(-c4ccc5nc(-c6ccc(C(=O)NCCN(C)C)cc6)[nH]c5c4)cc3[nH]2)cc1 [Compound 450] |  |  |  | 4.53
CN(C)CCNC(=O)c1ccc(-c2nc3ccc(-c4ccc5nc(-c6ccc(C(=O)NCCCN(C)CCCNC(=O)c7ccc(-c8nc9ccc(-c%10ccc%11nc(-c%12ccc(C(=O)NCCN(C)C)cc%12)[nH]c%11c%10)cc9[nH]8)cc7)cc6)[nH]c5c4)cc3[nH]2)cc1 [Compound 451] |  |  |  | 4.85
CN(C)CCNC(=O)c1ccc(-c2nc3ccc(-c4ccc5nc(-c6ccc(C(=O)N7CCCC8C9CCCN(C(=O)c%10ccc(-c%11nc%12ccc(-c%13ccc%14nc(-c%15ccc(C(=O)NCCN(C)C)cc%15)[nH]c%14c%13)cc%12[nH]%11)cc%10)C9CCC87)cc6)[nH]c5c4)cc3[nH]2)cc1 (centres unmarked) [Compound 452] |  |  |  | 5.51
CN(C)CCNC(=O)c1ccc(-c2nc3ccc(-c4ccc5nc(-c6ccc(C(=O)NC[C@H]7CCCN7C(=O)c7ccc(-c8nc9ccc(-c%10ccc%11nc(-c%12ccc(C(=O)NCCN(C)C)cc%12)[nH]c%11c%10)cc9[nH]8)cc7)cc6)[nH]c5c4)cc3[nH]2)cc1 [Compound 453] |  |  |  | 5.21
CN(C)CCNC(=O)c1ccc(-c2nc3ccc(-c4ccc5nc(-c6ccc(C(=O)N[C@@H]7CCN(C(=O)c8ccc(-c9nc%10ccc(-c%11ccc%12nc(-c%13ccc(C(=O)NCCN(C)C)cc%13)[nH]c%12c%11)cc%10[nH]9)cc8)C7)cc6)[nH]c5c4)cc3[nH]2)cc1 [Compound 454] |  |  |  | 5.47
CN(C)CCNC(=O)c1ccc(-c2nc3ccc(-c4ccc5nc(-c6ccc(C(=O)N[C@H]7CCN(C(=O)c8ccc(-c9nc%10ccc(-c%11ccc%12nc(-c%13ccc(C(=O)NCCN(C)C)cc%13)[nH]c%12c%11)cc%10[nH]9)cc8)C7)cc6)[nH]c5c4)cc3[nH]2)cc1 [Compound 455] |  |  |  | 5.42
CN(C)CCCOc1ccc(-c2nc3cc(-c4ccc5[nH]c(-c6ccc(C(=O)NCCCn7cc(-c8cccc(NC(=O)c9ccc(-c%10nc%11cc(-c%12ccc%13[nH]c(-c%14ccc(C(=O)NCCN(C)C)cc%14)nc%13c%12)ccc%11[nH]%10)cc9)c8)nn7)cc6)nc5c4)ccc3[nH]2)cc1 [Compound 456] |  |  |  | 4.35
CN(C)CCCOc1ccc(-c2nc3cc(-c4ccc5[nH]c(-c6ccc(C(=O)NCCCn7cc(CCCNC(=O)c8ccc(C9=Nc%10cc(-c%11ccc%12[nH]c(-c%13ccc(C(=O)NCCN(C)C)cc%13)nc%12c%11)ccc%10C9)cc8)nn7)cc6)nc5c4)ccc3[nH]2)cc1 [Compound 457] |  |  |  | < 3.70
CN(C)CCNC(=O)c1ccc2nc(-c3ccc4cc(-c5nc6ccc(C(=O)NCCN(C)C)cc6[nH]5)ccc4c3)[nH]c2c1 [Compound 462] |  | −2.7 |  | 
CC(C(=O)N(C)C(C)C(=O)N(C)C(C)C(=O)N(C)C(C)C(=O)N(CCCn1cc(CCCCN(C)CCOc2ccc(-c3nc4cc(-c5ccc6[nH]c(-c7ccc(OCCN(C)C)cc7)nc6c5)ccc4[nH]3)cc2)nn1)CC(N)=O)N(C)C(=O)CNCCCn1cc(CCCCN(C)CCOc2ccc(-c3nc4cc(-c5ccc6[nH]c(-c7ccc(OCCN(C)C)cc7)nc6c5)ccc4[nH]3)cc2)nn1 (centres unmarked) [compound 164] |  |  |  | 5.72
